# Literature values as cited in PMC8819907 (Journal of Experimental & Clinical Cancer Research : CR, 2022).
# Assays:
# [1] = system: patients with advanced solid tumors; set-up: method as in ref 27 (a number printed in a supplementary file, which may have a reference list of its own: not looked up in the article's list); conditions: cited from earlier work
# [2] = only detectable minor component in blood; cited from earlier work
# [3] = set-up: method as in PMID 32696585; conditions: cited from earlier work
# [4] = system: KRAS-mutant NSCLC; set-up: method as in ref 24 (a number printed in a supplementary file, which may have a reference list of its own: not looked up in the article's list); conditions: cited from earlier work
# [5] = system: recurrent low-grade serous carcinoma of the ovary or peritoneum; set-up: method as in ref 33,34 (a number printed in a supplementary file, which may have a reference list of its own: not looked up in the article's list); conditions: 8/52 patients; cited from earlier work
# [6] = system: metastatic biliary tract cancers; set-up: method as in ref 33,34 (a number printed in a supplementary file, which may have a reference list of its own: not looked up in the article's list); conditions: 3/25 response evaluable patients; cited from earlier work
structure (smiles),measurement,setting,value
Cn1ncc(Cl)c1-c1cc(C(=O)N[C@H](CN)Cc2ccc(F)c(F)c2)oc1Cl [GSK2141795],RP2D for single agent,[1],75 mg/day
Cc1c(=O)n(C)c(Nc2ccc(I)cc2F)c2c(=O)n(C3CC3)c(=O)n(-c3cccc(N)c3)c12 [M5],share of the blood radioactivity,[2],< 7%
O=C(c1ccc(F)c(F)c1Nc1ccc(I)cc1F)N1CC(O)([C@@H]2CCCCN2)C1 [cobimetinib],"total AUC0−∞ lower, severe hepatic impairment vs normal hepatic function",[3],~30%
same,"unbound AUC0−∞ higher, severe hepatic impairment vs normal hepatic function",[3],~2 fold
CC(=O)O[C@@]12CO[C@@H]1C[C@H](O)[C@@]1(C)C(=O)[C@H](O)C3=C(C)[C@@H](OC(=O)[C@H](O)[C@@H](NC(=O)OC(C)(C)C)c4ccccc4)C[C@@](O)([C@@H](OC(=O)c4ccccc4)[C@H]21)C3(C)C [docetaxel],median PFS,[4],11.4 weeks
same,overall response rate (ORR),[4],12%
Cn1cnc2c(F)c(Nc3ccc(Br)cc3Cl)c(C(=O)NOCCO)cc21 [selumetinib],overall response rate,[5],15%
same,overall response rate,[6],12%
